From patent US20250188420A1, “MATURING AGENT HAVING BOTH OF ALK5 INHIBITORY ACTIVITY AND CDK8/19 INHIBITORY ACTIVITY” (ORIZURU THERAPEUTICS, INC., priority 2022, published 2025)
Like-named read-outs stand apart in the source and are kept apart here.

Tests used:
CDK8 and CDK19 (CDK8/19) = assay: binding evaluation test of kinase inhibitors against 11 kinases (FIG. 3); settings: compared among ALK5iII and nonmutagenic ALK5 inhibitors
Description: Next, the nonmutagenic ALK5 inhibitors (SB431542, SB525334, IN1130, and EW-7197) were also evaluated for their inhibitory activity against these 11 kinases.

[1] = test system: pancreatic progenitor cell population obtained from human iPS cells (Ff-I14-s04 line); assay: induction of differentiation of pancreatic progenitor cell population into insulin-positive cell population, flow cytometry; type: cell-based
Description: In this testing method, the induction of differentiation of human iPS cells (Ff-I14-s04 line) into a pancreatic progenitor cell population was carried out according to the above steps 1)-4), the previous report (Stem Cell Research (2015) 14, 185-197), etc. The induction of differentiation into insulin-positive cells was carried out according to the above step 5), 6), etc.
The number of insulin-positive and NKX6.1-positive cells and the number of CHGA-positive and PDX1-positive cells in the insulin-positive cell population obtained by the above method was counted by flow cytometry to determine the respective proportions of the cells in each cell population.
The number of insulin-positive and NKX6.1-positive cells in the insulin-positive cell population obtained by the above method was counted by flow cytometry to determine the respective proportions of the cells in each cell population.

[2] = test system: Salmonella typhimurium TA100, TA1535, TA98, and TA1537 strains and an Escherichia coli WP2uvrA strain; assay: Ames test (mutagenicity evaluation); settings: no S9 fraction; FIG. 1
Description: (§1) The Ames test was conducted according to a conventionally known approach. That is, each bacterial strain of Salmonella typhimurium TA100, TA1535, TA98, and TA1537 strains and an Escherichia coli WP2uvrA strain was mixed with each compound with seven concentrations (78.1 to 5,000 μg/plate), preincubated in vitro for 20 minutes, and then inoculated, together with added semifluid agar, to a minimal glucose agar medium, followed by solidification and incubation at 37° C. for 48 hours. This experiment involved no rat liver S9 fraction because the experiment was aimed at evaluating the mutagenicity of each compound in a cell culture system, not evaluating metabolites obtained after metabolisms by hepatic enzymes. […] Positivity was determined when an average number of revertant colonies in any of the bacterial strains was at least twice or more the average number of the negative control.

[3] = test system: Salmonella typhimurium TA1537
Description: as §1

[4] = test system: insulin-positive cell population obtained from human iPS cells; assay: single-cell RNA-seq analysis of insulin-positive cell populations; type: cell-based; settings: for typical endocrine cells (clusters #0, #1, #2, #3, and #6) in the insulin-positive cell population: 10 μM ALK5iII, 3 μM SB431542, 0.3 μM Senexin B or combination; for percentage of each cluster (#1, #3, #6, and #12) in insulin-positive and NKX6.1-positive cell subpopulation: versus population produced using ALK5iII, FIG. 5
Description: Subsequently, in order to compare cell composition among the respective insulin-positive cell populations produced using the inhibitors (1) to (4), single-cell RNA-seq (scRNA-seq) analysis was conducted. A library for scRNA-seq analysis was prepared using Chromium Controller and a preparation kit (Chromium Next GEM Single Cell 3′ Kits v3.1) from 10× Genomics, Inc. and sequenced using Hi-seq platform from Illumina, Inc. Data on the obtained UMI counts was analyzed using Cell Ranger and R Package Seurat from 10× Genomics, Inc. and subjected to dimensionality reduction and visualization using PCA and UMAP. Cell clustering based on the results of dimensionality reduction was carried out by clustering based on the shared nearest neighbor method of Seurat.
As a result, cell clusters #1 to #17 were identified in the respective insulin-positive cell populations produced using the inhibitors (1) to (4). […] The cells of clusters #3 and #6 had features specific for enterochromaffin cells. […] These cells can thereby be discriminated from the cells of cluster #1 adjacent thereto and are therefore considered to be relatively immature β cells. Some of the β cells might be integrated, together with α cells, δ cells, and γ cells, into cluster #0.

[5] = test system: pancreatic progenitor cell population obtained from human iPS cells (Ff-I14-s04 line); assay: induction of differentiation of pancreatic progenitor cell population into insulin-positive cell population, flow cytometry; type: cell-based; settings: Example 3; 3 μM SB431542, 0.3 μM Senexin B or both; versus 10 μM ALK5iII, FIG. 4B
CDK19 = CDK19 (Homo sapiens, UniProt Q9BWU1); settings: estimated from inhibition at 0.1 μM and 1 μM
CDK19, sequence (Q9BWU1 whole entry, species assumed): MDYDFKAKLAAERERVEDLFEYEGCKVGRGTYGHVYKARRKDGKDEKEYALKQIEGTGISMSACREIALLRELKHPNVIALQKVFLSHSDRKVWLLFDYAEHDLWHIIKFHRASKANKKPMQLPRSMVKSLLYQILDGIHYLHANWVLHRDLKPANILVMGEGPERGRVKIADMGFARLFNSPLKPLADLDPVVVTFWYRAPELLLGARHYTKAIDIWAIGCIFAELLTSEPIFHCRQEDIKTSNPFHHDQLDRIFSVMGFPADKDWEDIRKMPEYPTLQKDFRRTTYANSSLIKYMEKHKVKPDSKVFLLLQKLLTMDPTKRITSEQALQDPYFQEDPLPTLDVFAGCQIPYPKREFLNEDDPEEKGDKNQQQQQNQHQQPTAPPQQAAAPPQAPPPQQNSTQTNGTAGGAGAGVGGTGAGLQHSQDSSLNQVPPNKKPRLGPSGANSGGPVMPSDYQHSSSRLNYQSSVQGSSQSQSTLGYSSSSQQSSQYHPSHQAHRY
CDK19, sequence (P24863 whole entry partner, species assumed): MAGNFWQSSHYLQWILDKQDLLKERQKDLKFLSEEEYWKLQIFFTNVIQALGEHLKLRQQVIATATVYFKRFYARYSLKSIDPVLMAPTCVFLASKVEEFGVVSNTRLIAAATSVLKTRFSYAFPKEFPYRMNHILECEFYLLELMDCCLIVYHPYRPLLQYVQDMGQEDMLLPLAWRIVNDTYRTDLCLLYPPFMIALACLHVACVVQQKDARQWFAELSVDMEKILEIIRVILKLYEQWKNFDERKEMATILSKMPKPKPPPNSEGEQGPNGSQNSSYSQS

TGFBR2 = TGFBR2 (Homo sapiens, UniProt P37173); settings: estimated from inhibition at 0.1 μM and 1 μM
TGFBR2, sequence (P37173 23-567, species assumed): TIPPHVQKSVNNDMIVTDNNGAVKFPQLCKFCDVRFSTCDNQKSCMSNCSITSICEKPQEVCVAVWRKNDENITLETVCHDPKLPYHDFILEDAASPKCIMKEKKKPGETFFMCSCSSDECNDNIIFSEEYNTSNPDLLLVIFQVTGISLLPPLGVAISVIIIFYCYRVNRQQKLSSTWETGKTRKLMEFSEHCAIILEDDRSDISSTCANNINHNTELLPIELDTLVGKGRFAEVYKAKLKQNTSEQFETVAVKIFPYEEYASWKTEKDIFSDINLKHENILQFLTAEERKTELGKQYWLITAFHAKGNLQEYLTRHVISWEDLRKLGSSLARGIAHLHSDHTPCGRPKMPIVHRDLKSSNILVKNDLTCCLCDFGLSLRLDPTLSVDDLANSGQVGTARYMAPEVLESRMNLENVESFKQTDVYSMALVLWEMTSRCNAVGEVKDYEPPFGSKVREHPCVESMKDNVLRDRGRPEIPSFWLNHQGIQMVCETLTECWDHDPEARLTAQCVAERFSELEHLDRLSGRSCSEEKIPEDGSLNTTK

RIPK2 = RIPK2 (Homo sapiens, UniProt O43353); settings: estimated from inhibition at 0.1 μM and 1 μM
RIPK2, sequence (O43353 whole entry, species assumed): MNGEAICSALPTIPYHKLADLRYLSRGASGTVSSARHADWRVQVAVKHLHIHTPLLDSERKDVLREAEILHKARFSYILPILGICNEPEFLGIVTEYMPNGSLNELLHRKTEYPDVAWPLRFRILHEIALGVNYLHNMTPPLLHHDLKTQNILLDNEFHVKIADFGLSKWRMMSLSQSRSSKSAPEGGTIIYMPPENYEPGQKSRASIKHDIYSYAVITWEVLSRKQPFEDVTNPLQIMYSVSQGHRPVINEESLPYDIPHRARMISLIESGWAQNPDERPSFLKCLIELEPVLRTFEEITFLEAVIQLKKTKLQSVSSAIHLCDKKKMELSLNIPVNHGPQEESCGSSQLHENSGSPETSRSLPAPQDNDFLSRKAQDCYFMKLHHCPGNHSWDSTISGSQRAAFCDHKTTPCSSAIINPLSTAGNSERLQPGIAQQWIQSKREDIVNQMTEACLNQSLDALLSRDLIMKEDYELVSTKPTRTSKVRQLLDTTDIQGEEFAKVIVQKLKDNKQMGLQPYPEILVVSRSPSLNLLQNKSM

CDK8 = CDK8 (Homo sapiens, UniProt P49336); settings: estimated from inhibition at 0.1 μM and 1 μM
CDK8, sequence (P49336 whole entry, species assumed): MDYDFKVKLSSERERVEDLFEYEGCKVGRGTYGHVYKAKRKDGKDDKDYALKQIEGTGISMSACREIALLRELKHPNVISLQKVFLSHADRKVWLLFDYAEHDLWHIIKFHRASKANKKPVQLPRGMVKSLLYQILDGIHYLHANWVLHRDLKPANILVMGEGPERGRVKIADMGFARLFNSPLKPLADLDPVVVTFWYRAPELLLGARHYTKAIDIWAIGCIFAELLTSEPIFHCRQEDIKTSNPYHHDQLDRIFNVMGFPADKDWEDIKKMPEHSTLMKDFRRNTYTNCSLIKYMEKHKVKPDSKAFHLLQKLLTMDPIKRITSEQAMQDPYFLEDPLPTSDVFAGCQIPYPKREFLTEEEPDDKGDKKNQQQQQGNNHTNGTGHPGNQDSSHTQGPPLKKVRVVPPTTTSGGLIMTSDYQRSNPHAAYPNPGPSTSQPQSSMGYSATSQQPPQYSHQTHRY
CDK8, sequence (P24863 whole entry partner, species assumed): as the sequence (P24863 whole entry partner, species assumed) above

TNIK = TNIK (Homo sapiens, UniProt Q9UKE5); settings: estimated from inhibition at 0.1 μM and 1 μM
TNIK, sequence (Q9UKE5 whole entry, species assumed): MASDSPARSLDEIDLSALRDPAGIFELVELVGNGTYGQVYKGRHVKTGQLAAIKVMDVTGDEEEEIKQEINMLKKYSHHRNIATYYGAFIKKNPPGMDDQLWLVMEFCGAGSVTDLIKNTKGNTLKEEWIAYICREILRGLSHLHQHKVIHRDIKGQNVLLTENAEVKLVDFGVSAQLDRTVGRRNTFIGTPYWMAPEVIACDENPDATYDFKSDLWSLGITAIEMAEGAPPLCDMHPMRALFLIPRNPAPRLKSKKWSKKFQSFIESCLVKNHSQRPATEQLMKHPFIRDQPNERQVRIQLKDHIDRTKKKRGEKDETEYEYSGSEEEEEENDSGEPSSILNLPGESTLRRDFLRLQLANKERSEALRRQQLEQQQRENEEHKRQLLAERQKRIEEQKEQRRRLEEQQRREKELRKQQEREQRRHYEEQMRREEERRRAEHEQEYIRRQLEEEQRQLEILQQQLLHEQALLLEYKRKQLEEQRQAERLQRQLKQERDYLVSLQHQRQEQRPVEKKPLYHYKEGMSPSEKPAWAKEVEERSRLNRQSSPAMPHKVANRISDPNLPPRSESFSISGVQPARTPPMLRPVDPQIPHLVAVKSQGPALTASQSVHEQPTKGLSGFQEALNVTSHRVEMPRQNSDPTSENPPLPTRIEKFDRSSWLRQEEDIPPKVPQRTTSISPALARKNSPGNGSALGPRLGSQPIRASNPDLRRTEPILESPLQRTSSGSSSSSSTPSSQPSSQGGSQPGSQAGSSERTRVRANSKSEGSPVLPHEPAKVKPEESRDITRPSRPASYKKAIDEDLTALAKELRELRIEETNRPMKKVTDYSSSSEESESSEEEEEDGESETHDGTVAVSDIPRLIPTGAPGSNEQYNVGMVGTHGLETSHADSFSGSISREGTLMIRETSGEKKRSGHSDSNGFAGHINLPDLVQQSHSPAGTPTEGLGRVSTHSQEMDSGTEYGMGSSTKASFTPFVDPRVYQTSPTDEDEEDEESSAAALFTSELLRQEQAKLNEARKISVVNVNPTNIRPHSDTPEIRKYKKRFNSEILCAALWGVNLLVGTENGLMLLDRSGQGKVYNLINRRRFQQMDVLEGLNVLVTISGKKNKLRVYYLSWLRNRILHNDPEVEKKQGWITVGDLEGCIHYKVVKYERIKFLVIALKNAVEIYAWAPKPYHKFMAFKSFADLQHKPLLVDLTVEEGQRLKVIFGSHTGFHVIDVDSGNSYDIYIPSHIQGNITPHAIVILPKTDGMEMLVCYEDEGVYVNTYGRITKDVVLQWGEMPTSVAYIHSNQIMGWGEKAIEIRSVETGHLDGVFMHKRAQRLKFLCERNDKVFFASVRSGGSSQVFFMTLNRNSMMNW

[6] = test system: 11 kinases including CDK8 and CDK19; settings: 11 of approximately 350 recombinant kinases
ALK5 = target: T1, ALK5 (Homo sapiens, UniProt P36897); assay: ALK5-inhibiting activity (FIG. 1); type: biochemical
T1 sequence (P36897 34-503): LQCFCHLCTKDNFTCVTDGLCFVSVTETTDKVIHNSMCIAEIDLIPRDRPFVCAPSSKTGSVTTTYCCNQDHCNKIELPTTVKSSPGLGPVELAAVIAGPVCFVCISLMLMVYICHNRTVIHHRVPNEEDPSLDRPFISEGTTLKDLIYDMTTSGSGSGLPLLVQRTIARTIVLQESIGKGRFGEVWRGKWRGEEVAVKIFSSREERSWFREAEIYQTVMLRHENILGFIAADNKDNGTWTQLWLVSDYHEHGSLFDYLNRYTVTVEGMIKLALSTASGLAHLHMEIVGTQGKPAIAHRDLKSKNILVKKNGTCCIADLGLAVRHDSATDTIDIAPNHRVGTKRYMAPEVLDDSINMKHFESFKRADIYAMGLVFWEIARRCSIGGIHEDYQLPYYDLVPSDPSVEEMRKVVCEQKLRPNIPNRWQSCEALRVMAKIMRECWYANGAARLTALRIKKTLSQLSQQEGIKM

[7] = Example 2, SB525334 10 μM, SB431542 10 μM, IN1130 1 μM, EW-7197 1 μM, versus control medium (−)
[8] = Example 3, 3 μM SB431542, 0.3 μM Senexin B or both, versus 10 μM ALK5iII, FIG. 4A

Cc1cccc(-c2[nH]c(CNc3ccccc3F)nc2-c2ccc3ncnn3c2)n1 [EW-7197]
inhibitory activity against CDK8 and CDK19 (CDK8/19) (CDK8 and CDK19 (CDK8/19)): unique to ALK5iII | proportion of CHGA-positive and PDX1-positive cells [1, 7]: equivalent to the control | proportion of insulin-positive and NKX6.1-positive cells [1, 7]: equivalent to the control

Cc1cccc(-c2nc(C(C)(C)C)[nH]c2-c2ccc3nccnc3c2)n1 [SB525334, 6-[2-tert-Butyl-5-(6-methylpyridin-2-yl)-1H-imidazol-4-yl]quinoxaline]
mutagenicity / Ames test determination [2]: no mutagenicity | inhibitory activity against CDK8 and CDK19 (CDK8/19) (CDK8 and CDK19 (CDK8/19)): unique to ALK5iII | proportion of CHGA-positive and PDX1-positive cells [1, 7]: equivalent to the control | proportion of insulin-positive and NKX6.1-positive cells [1, 7]: equivalent to the control

COc1ccc2nc3cc(Cl)ccc3c(NCCCNCCCl)c2c1 [ICR 191]
# of colony ([3]; TA1537, -S9, positive control, 1.0 μg (quinoxaline analog experiment)): 1804

Cl.Nc1c2ccccc2nc2ccccc12.O [Compound 9-AA, 9-aminoacridine hydrochloride monohydrate]
# of colony ([3]; TA1537, -S9, positive control, 80 μg (ALK5 i II experiment)): 169

CN1CCN(C(=O)c2ccc3cc(CCNc4ncnc5ccc(C#N)cc45)ccc3c2)CC1 [Senexin B, 4-((2-(6-(4-Methylpiperazine-1-carbonyl)naphthalen-2-yl)ethyl)amino)quinazoline-6-carbonitrile]
proportion of insulin-positive and NKX6.1-positive cells [1, 8]: higher percentage | typical endocrine cells (clusters #0, #1, #2, #3, and #6) in the insulin-positive cell population ([4]; scRNA-seq): found with almost no exception | percentage of each cluster (#1, #3, #6, and #12) in insulin-positive and NKX6.1-positive cell subpopulation [4]: different | total cell yield [5]: lower value

Cc1cccc(-c2n[nH]cc2-c2ccc3ncccc3n2)n1 [ALK5iII, 2-(3-(6-methylpyridin-2-yl)-1H-pyrazol-4-yl)-1,5-naphthyridine]
Ames test determination [3]: positive | inhibitory activity against CDK8 and CDK19 (CDK8/19) (CDK8 and CDK19 (CDK8/19)): unique to ALK5iII | typical endocrine cells (clusters #0, #1, #2, #3, and #6) in the insulin-positive cell population ([4]; scRNA-seq): found with almost no exception | Estimate pIC50 value (CDK19): 7.18 ± 0.50 | Estimate pIC50 value (TGFBR2): 6.97 ± 0.12 | Estimate pIC50 value (RIPK2): 6.82 ± 0.05 | Estimate pIC50 value (CDK8): 6.80 ± 0.40 | Estimate pIC50 value (TNIK): 6.18 ± 0.14 | estimate pIC50 value against 11 kinases [6]: more than 6

NC(=O)c1ccc(-c2nc(-c3ccc4c(c3)OCO4)c(-c3ccccn3)[nH]2)cc1 [SB431542, 4-[4-(1,3-Benzodioxol-5-yl)-5-(2-pyridinyl)-1H-imidazol-2-yl]-benzamide]
mutagenicity / Ames test determination [2]: no mutagenicity | inhibitory activity against CDK8 and CDK19 (CDK8/19) (CDK8 and CDK19 (CDK8/19)): unique to ALK5iII | proportion of CHGA-positive and PDX1-positive cells [1, 7]: equivalent to the control | proportion of insulin-positive and NKX6.1-positive cells [1, 7]: equivalent to the control | proportion of insulin-positive and NKX6.1-positive cells [1, 8]: lower values | clusters #5, #9, #10, #12, and #13 ([4]; scRNA-seq): specialized | typical endocrine cells (clusters #0, #1, #2, #3, and #6) in the insulin-positive cell population ([4]; scRNA-seq): not found | percentage of each cluster (#1, #3, #6, and #12) in insulin-positive and NKX6.1-positive cell subpopulation [4]: different | total cell yield [5]: lower values

Cc1cccc(-c2nc(Cc3cccc(C(N)=O)c3)[nH]c2-c2ccc3nccnc3c2)n1 [IN1130, 3-[[5-(6-Methyl-2-pyridinyl)-4-(6-quinoxalinyl)-1H-imidazol-2-yl]methyl]benzamide]
inhibitory activity against CDK8 and CDK19 (CDK8/19) (CDK8 and CDK19 (CDK8/19)): unique to ALK5iII | proportion of CHGA-positive and PDX1-positive cells [1, 7]: equivalent to the control | proportion of insulin-positive and NKX6.1-positive cells [1, 7]: equivalent to the control

c1cncc(-c2n[nH]cc2-c2cnc3ccccc3n2)c1 [2-(3-(pyridin-3-yl)-1H-pyrazol-4-yl)quinoxaline]
# of colony ([3]; TA1537, -S9, 78.1 μg/plate): 5 | # of colony ([3]; TA1537, -S9, 156 μg/plate): 9 | # of colony ([3]; TA1537, -S9, 313 μg/plate): 21 | # of colony ([3]; TA1537, -S9, 625 μg/plate): 45 | # of colony ([3]; TA1537, -S9, 1250 μg/plate): 82 | # of colony ([3]; TA1537, -S9, 2500 μg/plate): 128 | # of colony ([3]; TA1537, -S9, 5000 μg/plate): 194 | mutagenicity / Ames test determination [2]: positive | ALK5-inhibiting activity (ALK5): no ALK5-inhibiting activity
